Structures are written as SMILES. Structures can show the parent of a compound that is named as a salt.

In the assay the target is T1, recombinant guanylate cyclase reporter cell line (Rattus norvegicus, UniProt P19686+P20595).
T1 construct: expressed in transfected cells
T1 sequence (P20595 1-619): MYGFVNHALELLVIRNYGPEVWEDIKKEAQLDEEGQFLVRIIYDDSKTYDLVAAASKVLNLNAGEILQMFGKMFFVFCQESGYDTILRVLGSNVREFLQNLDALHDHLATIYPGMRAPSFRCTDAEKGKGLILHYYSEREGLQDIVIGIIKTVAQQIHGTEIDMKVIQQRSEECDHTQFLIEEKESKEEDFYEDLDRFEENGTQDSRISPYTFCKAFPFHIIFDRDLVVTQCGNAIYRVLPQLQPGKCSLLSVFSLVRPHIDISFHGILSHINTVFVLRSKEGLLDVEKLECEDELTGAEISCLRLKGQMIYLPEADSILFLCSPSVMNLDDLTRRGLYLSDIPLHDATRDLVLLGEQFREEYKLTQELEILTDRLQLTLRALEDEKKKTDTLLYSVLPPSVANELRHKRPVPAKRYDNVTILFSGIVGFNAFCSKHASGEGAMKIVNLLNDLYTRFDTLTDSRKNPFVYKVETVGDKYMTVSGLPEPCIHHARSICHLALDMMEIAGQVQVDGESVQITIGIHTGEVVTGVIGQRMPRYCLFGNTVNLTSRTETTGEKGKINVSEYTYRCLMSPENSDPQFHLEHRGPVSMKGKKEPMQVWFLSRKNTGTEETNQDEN
T1 sequence (P19686 1-690): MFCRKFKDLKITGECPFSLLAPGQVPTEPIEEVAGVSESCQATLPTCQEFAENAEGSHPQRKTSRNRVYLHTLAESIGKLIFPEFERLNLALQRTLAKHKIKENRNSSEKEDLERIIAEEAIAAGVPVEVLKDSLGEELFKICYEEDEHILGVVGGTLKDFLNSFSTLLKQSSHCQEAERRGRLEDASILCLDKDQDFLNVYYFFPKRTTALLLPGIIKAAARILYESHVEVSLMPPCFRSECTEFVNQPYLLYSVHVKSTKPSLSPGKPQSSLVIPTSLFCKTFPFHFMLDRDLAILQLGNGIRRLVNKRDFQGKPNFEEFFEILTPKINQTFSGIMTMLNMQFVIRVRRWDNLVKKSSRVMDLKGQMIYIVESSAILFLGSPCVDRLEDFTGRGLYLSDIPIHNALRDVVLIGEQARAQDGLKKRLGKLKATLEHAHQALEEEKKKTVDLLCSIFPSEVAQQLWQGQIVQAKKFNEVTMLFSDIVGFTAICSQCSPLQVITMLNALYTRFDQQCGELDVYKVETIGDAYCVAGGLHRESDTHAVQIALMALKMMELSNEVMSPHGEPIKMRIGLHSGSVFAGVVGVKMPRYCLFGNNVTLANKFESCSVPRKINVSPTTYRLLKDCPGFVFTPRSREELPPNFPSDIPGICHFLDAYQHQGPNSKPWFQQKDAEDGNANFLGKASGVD
In words: Action on recombinant guanylate cyclase reporter cell line. It counts as cell-based. As to conditions: in some cases mean values obtained from individual determinations. An outline of the steps: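 Cell-based reporter assay with recombinant guanylate cyclase expressed in a reporter cell line, per a published method. Activity reported as minimal effective concentration (MEC), in some cases as the mean of individual determinations.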
With `Cc1nc2c(OCC3CCC3)cccn2c1C(=O)NCCC1(O)CCCC1` [Example 97, 8-(cyclobutylmethoxy)-N-[2-(1-hydroxycyclopentyl)ethyl]-2-methylimidazo[1,2-a]pyridine-3-carboxamide], the “MEC (minimal effective concentration)” value stood at 1.0 µM.

`Cc1nc2c(OCC3CCC3)cccn2c1C(=O)NCCOCCO` [Example 98, 8-(cyclobutylmethoxy)-N-[2-(2-hydroxyethoxy)ethyl]-2-methylimidazo[1,2-a]pyridine-3-carboxamide]: the “MEC (minimal effective concentration)” value is 3.0 µM.

`Cc1nc2c(OCC3CCC3)cccn2c1C(=O)NCCC1(O)CCCCC1` [Example 99, 8-(cyclobutylmethoxy)-N-[2-(1-hydroxycyclohexyl)ethyl]-2-methylimidazo[1,2-a]pyridine-3-carboxamide]: the “MEC (minimal effective concentration)” value was found to be 3.0 µM.

`[2H]C([2H])(Oc1cccn2c(C(=O)N[C@@H](CO)CCCC)c(C)nc12)c1c(F)cccc1F` [Example 115, 8-{[(2,6-difluorophenyl)(^2H2)methyl]oxy}-N-[(2R)-1-hydroxyhexan-2-yl]-2-methylimidazo[1,2-a]pyridine-3-carboxamide]: the “MEC (minimal effective concentration)” value came out at 0.01 µM.

For `Cc1nc2c(OCc3c(F)cccc3F)cccn2c1C(=O)NCCC1(O)CCCCC1` [Example 116, 8-[(2,6-difluorobenzyl)oxy]-N-[2-(1-hydroxycyclohexyl)ethyl]-2-methylimidazo[1,2-a]pyridine-3-carboxamide], the “MEC (minimal effective concentration)” value was 0.3 µM.

Turning to `Cc1nc2c(OCc3c(F)cccc3F)cccn2c1C(=O)NCCC1(O)CCCC1` [Example 117, 8-[(2,6-difluorobenzyl)oxy]-N-[2-(1-hydroxycyclopentyl)ethyl]-2-methylimidazo[1,2-a]pyridine-3-carboxamide], the “MEC (minimal effective concentration)” value is 0.03 µM.

As for `Cc1nc2c(OCc3c(F)cccc3F)cccn2c1C(=O)N[C@H](C)CO` [Example 118, 8-[(2,6-difluorobenzyl)oxy]-N-[(2R)-1-hydroxypropan-2-yl]-2-methylimidazo[1,2-a]-pyridine-3-carboxamide], the “MEC (minimal effective concentration)” value was 0.3 µM.

As to `Cc1nc2c(OCc3c(F)cccc3F)cccn2c1C(=O)NC1(CO)CCC1` [Example 125, 8-[(2,6-Difluorobenzyl)oxy]-N-[1-(hydroxymethyl)cyclobutyl]-2-methylimidazo[1,2-a]pyridine-3-carboxamide], the “MEC (minimal effective concentration)” value came to 0.3 µM.

Take `C#Cc1cc(OCc2c(F)cccc2F)c2nc(C)c(C(=O)N[C@@H](CO)CCCC)n2c1` [Example 126, 8-[(2,6-Difluorobenzyl)oxy]-6-ethynyl-N-[(2R)-hydroxyhexan-2-yl]-2-methylimidazo[1,2-a]-pyridine-3-carboxamide]: the “MEC (minimal effective concentration)” value amounted to 0.1 µM.

Regarding `Cc1nc2c(OCc3c(F)cccc3F)cc(Cl)cn2c1C(=O)N[C@@H](CO)CCCO` [Example 127, 6-Chloro-8-[(2,6-difluorobenzyl)oxy]-N-[(2R)-1,5-dihydroxypentan-2-yl]-2-methylimidazo[1,2-a]-pyridine-3-carboxamide], the “MEC (minimal effective concentration)” value amounted to 0.3 µM.

In the case of `Cc1nc2c(OCc3c(F)cccc3F)cc(Cl)cn2c1C(=O)N[C@@H](CO)CCO` [Example 128, 6-chloro-8-[(2,6-difluorobenzyl)oxy]-N-[(2R)-1,4-dihydroxybutan-2-yl]-2-methylimidazo[1,2-a]pyridine-3-carboxamide], the “MEC (minimal effective concentration)” value is 0.3 µM.

Turning to `Cc1nc2c(OCc3c(F)cccc3F)cccn2c1C(=O)N[C@@H](CO)CCO` [Example 129, 8-[(2,6-difluorobenzyl)oxy]-N-[(2R)-1,4-dihydroxybutan-2-yl]-2-methylimidazo[1,2-a]pyridine-3-carboxamide], the “MEC (minimal effective concentration)” value was found to be 3.0 µM.

For `Cc1nc2c(OCc3c(F)cccc3F)cccn2c1C(=O)N[C@@H](CO)CCCO` [Example 130, 8-[(2,6-difluorobenzyl)oxy]-N-[(2R)-1,5-dihydroxypentan-2-yl]-2-methylimidazo[1,2-a]pyridine-3-carboxamide], the “MEC (minimal effective concentration)” value was determined as 1.0 µM.

As to `CCCC[C@H](CO)NC(=O)c1c(C)nc2c(OCc3c(F)cccc3F)cc(Cl)cn12` [Example 131, 6-chloro-8-[(2,6-difluorobenzyl)oxy]-N-[(2R)-1-hydroxyhexan-2-yl]-2-methylimidazo[1,2-a]pyridine-3-carboxamide], the “MEC (minimal effective concentration)” value amounted to 0.01 µM.

Take `CCCC[C@H](CO)NC(=O)c1c(C)nc2c(OCc3c(F)cccc3F)cc(F)cn12` [Example 132, 8-[(2,6-difluorobenzyl)oxy]-6-fluoro-N-[(2R)-1-hydroxyhexan-2-yl]-2-methylimidazo[1,2-a]pyridine-3-carboxamide]: the “MEC (minimal effective concentration)” value was found to be 0.03 µM.

Take `CCCC[C@H](CO)NC(=O)c1c(C)nc2c(OCc3c(F)cccc3F)cc(C)cn12` [Example 133, 8-[(2,6-difluorobenzyl)oxy]-N-[(2R)-1-hydroxyhexan-2-yl]-2,6-dimethylimidazo[1,2-a]pyridine-3-carboxamide]: the “MEC (minimal effective concentration)” value was 0.01 µM.

As to `Cc1nc2c(OCc3c(F)cccc3F)cccn2c1C(=O)N[C@@H](CO)CC[C@@H](O)C(F)(F)F` [Example 135, 8-[(2,6-difluorobenzyl)oxy]-2-methyl-N-[(2R,5R)-6,6,6-trifluoro-1,5-dihydroxyhexan-2-yl]imidazo[1,2-a]pyridine-3-carboxamide trifluoroacetate (1:1)], the “MEC (minimal effective concentration)” value came out at 0.1 µM.

Consider `Cc1nc2c(OCc3c(F)cccc3F)cccn2c1C(=O)NCC(O)COc1ccc(F)cc1` (centres unmarked) [Example 136, 8-[(2,6-difluorobenzyl)oxy]-N-[3-(4-fluorophenoxy)-2-hydroxypropyl]-2-methylimidazo[1,2-a]pyridine-3-carboxamide], for which the “MEC (minimal effective concentration)” value is 3.0 µM.

On to `Cc1nc2c(OCc3c(F)cccc3F)cccn2c1C(=O)NCC(O)COc1ccccc1` (centres unmarked) [Example 137, 8-[(2,6-difluorobenzyl)oxy]-N-(2-hydroxy-3-phenoxypropyl)-2-methylimidazo[1,2-a]-pyridine-3-carboxamide], for which the “MEC (minimal effective concentration)” value stood at 3.0 µM.

Take `CCCC[C@@H](NC(=O)c1c(C)nc2c(OCc3c(F)cccc3F)cccn12)C(C)O` (stereo partly drawn) [Example 139, 8-[(2,6-Difluorobenzyl)oxy]-N-[(3R)-2-hydroxyheptan-3-yl]-2-methylimidazo[1,2-a]pyridine-3-carboxamide]: the “MEC (minimal effective concentration)” value is 0.03 µM.

For the compound `CCCC[C@@H](NC(=O)c1c(C)nc2c(OCc3c(F)cccc3F)cccn12)C(C)O` (stereo partly drawn) [Example 140, 8-[(2,6-Difluorobenzyl)oxy]-N-[(3R)-2-hydroxyheptan-3-yl]-2-methylimidazo[1,2-a]pyridine-3-carboxamide], the “MEC (minimal effective concentration)” value was determined as 0.03 µM.

For the compound `CCCC[C@@H](NC(=O)c1c(C)nc2c(OCc3c(F)cccc3F)cccn12)C(O)C(F)(F)F` (stereo partly drawn) [Example 141, 8-[(2,6-Difluorobenzyl)oxy]-2-methyl-N-[(3R)-1,1,1-trifluoro-2-hydroxyheptan-3-yl]imidazo[1,2-a]pyridine-3-carboxamide], the “MEC (minimal effective concentration)” value amounted to 0.1 µM.

For `CCCC[C@@H](NC(=O)c1c(C)nc2c(OCc3c(F)cccc3F)cccn12)C(O)C(F)(F)F` (stereo partly drawn) [Example 142, 8-[(2,6-Difluorobenzyl)oxy]-2-methyl-N-[(3R)-1,1,1-trifluoro-2-hydroxyheptan-3-yl]imidazo[1,2-a]pyridine-3-carboxamide], the “MEC (minimal effective concentration)” value came to 0.1 µM.

The record behind these values is patent US8946215B2, “Hydroxy-substituted imidazo[1,2-a]pyridinecarboxamides and their use” (Bayer Pharma Aktiengesellschaft, priority 2012, dated 2015).
